# Measurements: patent US20060029544A1, “Receptor-binding cyclic peptides and methods of use” (The Regents of the University of California Office of …, priority 2004, published 2006)
# Assays:
# αvβ3 integrin = target: T1, αvβ3 integrin (Homo sapiens, UniProt P05106+P06756); assay: ELISA: soluble αvβ3-mFc binding to immobilized 50 kDa fibronectin fragment in the presence of RGD peptides; conditions: 2 μM peptide
# T1 construct: chimeras comprising the extracellular domain of αvβ3, αvβ5, α5β1, and αIIbβ3 linked to the Fc domain of either mouse IgG; purchased Celltech plc (supplied, no catalogue number)
# T1 sequence (P06756 31-992 limits assumed): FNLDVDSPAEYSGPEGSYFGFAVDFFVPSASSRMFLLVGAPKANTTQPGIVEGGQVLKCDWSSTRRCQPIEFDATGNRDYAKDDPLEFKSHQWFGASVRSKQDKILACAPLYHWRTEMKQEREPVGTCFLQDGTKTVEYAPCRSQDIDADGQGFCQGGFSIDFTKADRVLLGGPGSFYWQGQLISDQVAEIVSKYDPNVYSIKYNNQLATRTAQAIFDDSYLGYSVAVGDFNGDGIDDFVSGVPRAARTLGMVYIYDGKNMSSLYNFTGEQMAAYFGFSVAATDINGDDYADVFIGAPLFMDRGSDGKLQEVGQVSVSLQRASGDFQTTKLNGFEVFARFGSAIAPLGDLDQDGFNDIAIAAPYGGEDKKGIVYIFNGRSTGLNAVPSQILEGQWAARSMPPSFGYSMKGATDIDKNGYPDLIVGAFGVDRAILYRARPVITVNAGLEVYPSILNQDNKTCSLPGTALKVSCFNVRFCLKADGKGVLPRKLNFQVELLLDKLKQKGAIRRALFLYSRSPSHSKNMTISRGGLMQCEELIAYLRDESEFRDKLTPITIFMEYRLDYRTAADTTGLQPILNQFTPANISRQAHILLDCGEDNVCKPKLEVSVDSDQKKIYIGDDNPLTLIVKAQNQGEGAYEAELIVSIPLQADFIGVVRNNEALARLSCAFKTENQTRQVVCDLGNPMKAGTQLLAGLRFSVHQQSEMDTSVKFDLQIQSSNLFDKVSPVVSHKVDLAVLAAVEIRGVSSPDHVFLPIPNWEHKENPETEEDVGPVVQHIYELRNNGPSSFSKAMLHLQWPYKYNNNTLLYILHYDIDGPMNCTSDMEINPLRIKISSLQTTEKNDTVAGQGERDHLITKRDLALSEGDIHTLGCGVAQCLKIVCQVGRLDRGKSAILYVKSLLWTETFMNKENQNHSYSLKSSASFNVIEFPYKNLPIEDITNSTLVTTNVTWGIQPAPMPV
# T1 sequence (P05106 27-718 limits assumed): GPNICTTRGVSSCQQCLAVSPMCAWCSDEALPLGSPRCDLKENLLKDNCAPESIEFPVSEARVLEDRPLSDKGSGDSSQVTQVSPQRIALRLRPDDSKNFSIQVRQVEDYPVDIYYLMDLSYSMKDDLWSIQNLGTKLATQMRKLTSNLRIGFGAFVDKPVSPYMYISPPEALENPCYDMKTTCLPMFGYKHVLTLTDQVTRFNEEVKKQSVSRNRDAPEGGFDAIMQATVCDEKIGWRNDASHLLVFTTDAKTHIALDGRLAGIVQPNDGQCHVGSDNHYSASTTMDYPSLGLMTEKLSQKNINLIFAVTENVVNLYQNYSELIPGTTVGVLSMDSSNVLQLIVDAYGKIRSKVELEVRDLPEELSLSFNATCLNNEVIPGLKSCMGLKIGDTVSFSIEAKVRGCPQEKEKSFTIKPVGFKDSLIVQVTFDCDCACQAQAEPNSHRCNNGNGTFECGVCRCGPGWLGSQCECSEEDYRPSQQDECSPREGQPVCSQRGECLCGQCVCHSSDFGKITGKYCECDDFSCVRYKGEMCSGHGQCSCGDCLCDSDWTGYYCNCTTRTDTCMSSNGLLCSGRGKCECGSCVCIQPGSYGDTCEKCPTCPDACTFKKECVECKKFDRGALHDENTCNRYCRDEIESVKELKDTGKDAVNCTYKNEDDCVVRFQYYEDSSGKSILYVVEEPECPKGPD
# Source text: (§1) Four different soluble integrins were supplied by Celltech plc. Soluble forms of αvβ3, αvβ5, α5β1, and αIIbβ3 integrin were generated by constructing chimeras comprising the extracellular domain of αvβ3, αvβ5, α5β1, and αIIbβ3 linked to the Fc domain of either mouse IgG (αvβ3-mFc, αvβ5-mFc, and αIIbβ3-mFc) or human IgG (α5β1-hFc) as described by Stephens et al., Cell Adhes. Commun., 7:377-390 (2000) and Coe et al., J. Biol. Chem., 276:35854-35866 (2001). Since the four soluble integrin chimeras were supplied either as purified proteins (αvβ3-mFc and α5β1-hFc) or as unpurified hybridoma supernatants (αIIbβ3-mFc and αvβ5-mFc), it was necessary to use two types of ELISAs. […] In one type of ELISA (FIGS. 2A and 2B), the immobilized component is a 50 kDa fragment of fibronectin. In the second type of ELISA (FIGS. 2C and 2D), the immobilized component is a goat anti-mFc antibody that is used to capture chimeric proteins so that the RGD binding site of the integrin is maximally exposed. Each three-sided box in FIG. 2 represents a single well of a 96-well plate, and the components are listed in the sequence of their addition to the assay. The immobilized component at the bottom of the well is bound to the well by electrostatic interactions.
# The plates were washed with PBS using a Denley Wellwash 4 Mk 2. Washing was repeated twice with a 400 μl wash per well. […] Plates were read using a plate spectrophotometer at 630 nm.
# Two negative and two positive controls were used in both types of ELISAs.
# (§2) FIGS. 3-6 illustrate the percent binding of the vitronectin, fibronectin, or fibrinogen ligand to αvβ5, α5β1, αIIbβ3, or αvβ3 integrin in the presence of RGD peptides (i.e., linear (A), cyclic (B), or 4-[^19F]-fluorobenzoyl cyclic (C)) at different concentrations, with 100% maximum signal being the signal obtained in the absence of the peptide.
# VUP melanoma cell line [1] = assay: Adhesion assay: [51Cr]-VUP cells to laminin; type: cell-based; conditions: highest concentration (200 μM)
# Method: (§3) RGD peptides were plated at a maximum concentration of 200 μM and a minimum concentration of 2 nM. For each RGD peptide sequence, linear peptides (A), cyclic peptides (B), and 4-[^19F]-fluorobenzoyl cyclic peptides (C) were assayed. Each RGD peptide concentration was performed in quadruplicate and each experiment was repeated twice.
# (§4) Plastic 96-well plates (Falcon 3912; Becton Dickinson) were coated with 50 μl substrate (10 μg/ml laminin or 5 μg/ml vitronectin). The plates were incubated at 37° C. in an 8% CO2 atmosphere for 1 hour. Unbound protein was flicked off and the plates were washed with phosphate buffered saline (PBS) and blocked with bovine serum albumin (0.1% w/v BSA)/PBS/0.1% sodium azide) for 1 hour. The plates were then washed with PBS, placed on a bed of ice and 25 μl of peptide was added to the wells.
# Sodium [^51Cr] chromate was purchased from Amersham International, UK. The solution was made isotonic by the addition of 110 μl 10× Hanks buffered salt solution. 100 μl of this solution (3.7 MBq) was added to 5-10×10^6 cells in 500 μl of serum-containing growth medium. The suspension was incubated at 37° C. for 45 minutes with regular agitation to resuspend the cells. The cells were then washed and spun 3 times with serum-free E4 medium to remove any free [^51Cr]chromium. A trypan blue viability count was performed and the cells were diluted to the necessary volume in serum-free E4 medium (4×10^5 cells/ml).
# (§5) 25 μl (about 10,000 cells) were added to each quadruplicate well and the plates incubated at 37° C. in an 8% CO2 atmosphere for 1 hour. Unbound cells were flicked off and the plates were washed twice with PBS/BSA containing 1 mM CaCl2 and 0.5 mM MgCl2. The plates were dabbed dry and cut into individual wells. The radioactivity associated with each well was determined in a gamma counter (1261 Multigamma; Wallac, Sweden). Quadruplicate 25 μl samples of labeled cells were counted as 100% input values. To determine non-specific binding, the ability of cells to bind BSA-coated wells was also assessed. […]
# (§6) The results were calculated as follows: [formula] […]
# VUP melanoma cell line [2] = assay: Adhesion assay: [51Cr]-VUP cells to vitronectin; type: cell-based; conditions: 20 μM peptide
# Method: as §3, §4
# Sodium [^51Cr] chromate was purchased from Amersham International, UK. […]
# as §5, with “Unbound cells were flicked off and the plates were washed twice with PBS/BSA containing 1 mM CaCl2 and 0.5 mM MgCl2. The plates were dabbed dry and cut into individual wells.” left out
# as §6
# α5β1 integrin = target: T2, α5β1 integrin (Homo sapiens, UniProt P05556+P08648); assay: ELISA: soluble α5β1-hFc binding to immobilized 50 kDa fibronectin fragment in the presence of RGD peptides; conditions: 20 μM peptide
# T2 construct: chimeras comprising the extracellular domain of αvβ3, αvβ5, α5β1, and αIIbβ3 linked to the Fc domain of either mouse IgG; purchased Celltech plc (supplied, no catalogue number)
# T2 sequence (P08648 42-995 limits assumed): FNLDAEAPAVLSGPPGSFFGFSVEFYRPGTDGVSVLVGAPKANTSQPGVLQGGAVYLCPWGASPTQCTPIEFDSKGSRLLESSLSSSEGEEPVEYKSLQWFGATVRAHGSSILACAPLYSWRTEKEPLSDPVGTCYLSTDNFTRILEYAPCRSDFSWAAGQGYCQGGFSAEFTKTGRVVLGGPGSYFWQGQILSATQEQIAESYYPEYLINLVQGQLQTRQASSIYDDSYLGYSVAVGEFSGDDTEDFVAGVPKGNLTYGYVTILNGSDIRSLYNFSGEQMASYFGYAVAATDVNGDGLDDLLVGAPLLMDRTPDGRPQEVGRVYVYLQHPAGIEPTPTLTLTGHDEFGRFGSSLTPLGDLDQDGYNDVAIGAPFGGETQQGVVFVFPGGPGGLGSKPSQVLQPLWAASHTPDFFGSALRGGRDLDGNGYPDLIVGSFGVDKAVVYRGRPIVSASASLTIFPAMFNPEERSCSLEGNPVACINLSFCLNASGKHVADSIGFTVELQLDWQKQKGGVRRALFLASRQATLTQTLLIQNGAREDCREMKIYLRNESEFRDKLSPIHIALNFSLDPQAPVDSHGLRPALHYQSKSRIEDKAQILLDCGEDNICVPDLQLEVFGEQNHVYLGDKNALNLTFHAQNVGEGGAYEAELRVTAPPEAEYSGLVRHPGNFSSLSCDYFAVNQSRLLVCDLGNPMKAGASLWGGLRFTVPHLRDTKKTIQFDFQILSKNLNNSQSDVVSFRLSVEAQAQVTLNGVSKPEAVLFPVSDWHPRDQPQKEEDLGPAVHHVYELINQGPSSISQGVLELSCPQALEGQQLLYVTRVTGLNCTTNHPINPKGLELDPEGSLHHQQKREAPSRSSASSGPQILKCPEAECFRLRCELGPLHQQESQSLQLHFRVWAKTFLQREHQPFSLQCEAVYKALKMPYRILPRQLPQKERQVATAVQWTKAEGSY
# T2 sequence (P05556 21-728 limits assumed): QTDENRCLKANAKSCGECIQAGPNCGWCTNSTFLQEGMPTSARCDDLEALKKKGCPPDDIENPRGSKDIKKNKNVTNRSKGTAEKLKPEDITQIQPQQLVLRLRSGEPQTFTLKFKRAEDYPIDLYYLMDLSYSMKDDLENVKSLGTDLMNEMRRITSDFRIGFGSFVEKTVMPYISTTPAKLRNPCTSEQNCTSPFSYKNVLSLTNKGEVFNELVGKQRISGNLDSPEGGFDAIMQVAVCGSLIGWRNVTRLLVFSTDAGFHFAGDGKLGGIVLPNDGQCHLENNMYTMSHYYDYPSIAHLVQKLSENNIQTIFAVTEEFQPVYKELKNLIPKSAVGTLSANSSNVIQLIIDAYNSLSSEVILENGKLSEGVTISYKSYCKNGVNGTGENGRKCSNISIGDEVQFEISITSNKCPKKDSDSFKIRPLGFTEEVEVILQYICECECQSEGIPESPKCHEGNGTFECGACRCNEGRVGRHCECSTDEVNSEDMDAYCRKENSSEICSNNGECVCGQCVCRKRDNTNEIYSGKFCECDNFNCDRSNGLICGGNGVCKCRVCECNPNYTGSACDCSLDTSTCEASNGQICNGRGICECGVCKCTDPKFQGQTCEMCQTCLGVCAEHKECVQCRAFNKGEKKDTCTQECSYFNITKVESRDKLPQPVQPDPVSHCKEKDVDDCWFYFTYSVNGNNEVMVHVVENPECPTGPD
# Source text: as §1
# To analyze the affinity and selectively of RGD peptides for αvβ3 and α5β1, 96-well ELISA plates were coated with 100 μl of a 5 μg/ml of the 50 kDa fragment of fibronectin in PBS per well and left overnight at 4° C. The plates were washed with PBS using a Denley Wellwash 4 Mk 2. Washing was repeated twice with a 400 μl wash per well. 200 μ/well of blocking buffer (i.e., to prevent non-specific binding of proteins) was then added for 1 hour followed by a repeat washing with PBS. RGD peptides were then added at a maximum concentration of 200 μM and a preliminary screen was performed at three concentrations, 200,20, and 2 μM. 100 μl of an RGD peptide was added to each well and each assay was performed in triplicate. Purified soluble αvβ3-mFc or purified α5β1-hFc was diluted to 2 μg/ml and 15 ng/ml, respectively, in conjugate buffer and 100 μl was added to each well. The plates were incubated for 2 hours with shaking using a Luckham R100 Rotatest at approximately 150 rpm. After incubation, the plates were washed with PBS as previously described and a labeled antibody was added. For the αvβ3 assay, a horseradish peroxidase (HRP)-labeled F(ab′)2 fragment of goat anti-mouse IgG Fc was diluted 1:2000 in conjugate buffer and 100 μl was added to each well. For the α5β1 assay, an HRP-labeled F(ab′)2 fragment of goat anti-human IgG Fc was diluted 1:2000 in conjugate buffer and 100 μl was added to each well. Plates were incubated for 30 minutes with shaking followed by 2 washes with PBS. 100 μl of TMB substrate was added to each well and plates were shaken during a 10 minute color development. Plates were read using a plate spectrophotometer at 630 nm.
# Two negative and two positive controls were used in both types of ELISAs. For example, the negative controls were wells that contained 50 μl of an active control peptide, integrin, and biotinylated ligand or 50 μl of the active control peptide and 50 μl of buffer. These negative control wells typically develop little to no color. […] These wells typically develop the maximum amount of color.
# as §2
substance,measurement,setting,value
RGDY(OMe)K [B7],"fibronectin binding to αvβ3, % of the maximum signal",αvβ3 integrin,6.6%
same,"adhesion of [51Cr]-VUP cells to laminin, normalized to absence of peptide (100%)",VUP melanoma cell line [1],46.89%±1.45%
same,"adhesion of [51Cr]-VUP cells to vitronectin, normalized to absence of peptide (100%)",VUP melanoma cell line [2],44.16%±1.71%
same,"fibronectin binding to α5β1, % of the maximum signal",α5β1 integrin,48.4%
